The text below walks through data of patent publication US20250195464A1, “ALOTAKETAL COMPOUNDS AND DERIVATIVES THEREOF FOR USE AS ANTIVIRAL AGENTS” (priority 2022, published 2025).

Where two headings read alike, the source gives them in different places.

Data set [1] deals with SARS-CoV-2 Omicron BA.1. Nature of the data set: microbe, parasite or virus in culture. In kind it is cell-based. The following applies: for SI (selectivity index): CC50 / EC50 BA.1; for inhibition of SARS-CoV-2 Omicron, dsRNA and nucleocapsids as indicators of viral load: Omicron BA.1, at the concentrations tested; for potency compared with Alotaketal C: dependence on R4 chirality.

Data set [2] in a line: Cytotoxicity assay, PrestoBlue cell viability. The data set is classed as cell-based. The following applies: human; concentration required to reduce cell viability by 50%, Calu-3 cells, 48-hr incubation. As to the method: Calu-3 cells were seeded with 10^4 cells/well in 96-well plates. Twenty-four hr after seeding media was aspirated and serially diluted compounds (described above) were added for an additional 48-hr. incubation. Cellular viability was assessed with Presto Blue Cell Viability Assay™ (Thermo Fisher Scientific™) according to the manufacturer's instructions. Cells were incubated with 5% PrestoBlue™ reagent for 2 hr before reading on the SpectraMax Gemini™ XS spectrofluorometer (Molecular Devices, LLC.™) set at excitation and emission wavelengths of 555 and 585 nm, respectively. Cellular viability was expressed relative (%) to vehicle-treated cells. Data are from at least three independent experiments.

The test system of data set [3] is proteins Kinase C (PKC). Conditions: Wang 2016; cited from earlier work.
For data set [4], the system named is mNG-SARS-CoV-2. Put plainly: microbe, parasite or virus in culture.
Data set [5] deals with SARS-CoV-2 Delta B.1.617.2. Nature of the data set: microbe, parasite or virus in culture. In kind it is cell-based.
In data set [6] the test system is SARS-CoV-2 VIDO. Put plainly: SARS-CoV-2 VIDO infection of Calu-3 cells, nucleocapsid and dsRNA staining. The data set is classed as cell-based. Conditions: Severe acute respiratory syndrome coronavirus 2, 3 hr pretreatment.
Data set [7] relates to SARS-CoV-2 Omicron BA.5. Put plainly: microbe, parasite or virus in culture. In kind it is cell-based. Conditions: Severe acute respiratory syndrome coronavirus 2, Calu-3 cells.
Data set [8] has as its system mNG-SARS-CoV-2. Put plainly: in vitro. Conditions: human.
For data set [9], the system named is SARS-CoV-2 Omicron BA.2. Put plainly: microbe, parasite or virus in culture. The data set is classed as cell-based. The following applies: Severe acute respiratory syndrome coronavirus 2, Calu-3 cells.
In data set [10] the test system is mNG-SARS-CoV-2. In kind it is cell-based. Conditions: Huh7.5.1 cells pretreated 3 hours with serial dilutions.
Setting [11] is: Severe acute respiratory syndrome coronavirus 2, Calu-3, read-out: EC50 BA.1.

As to `CCCCCCCCCCCC[C@@H]1CCC[C@]2(C=C(CO)[C@H]3CC(=O)C(C)=C[C@H]3O2)O1` [Compound I10-DD2, (2S,4aR,6′R,8aR)-4-(hydroxymethyl)-7-methyl-6′-dodecyl-3′,4a,4′,5′,6′,8a-hexahydrospiro[chromene-2,2′-pyran]-6(5H)-one], in [1], the “SARS-COV-2 Activity” value is recorded as “yes” and the “SI (selectivity index)” value stood at 56.7. The “inhibition of SARS-CoV-2 Omicron, dsRNA and nucleocapsids as indicators of viral load” value (shortened to “inhibition of SARS-CoV-2 Omicron”) in data set [1] (Calu-3 cells) is on record as “good inhibition”. Moreover, the EC50 in data set [1] (setting [11]) came to 2 µM. This compound had a CC50 at 48 h in data set [2] of at least 113 µM.

Take `CC(=O)O[C@]1(C)C[C@@H](/C=C(\C)CCC=C(C)C)O[C@@]2(C=C(CO)[C@H]3CC(=O)C(C)=C[C@H]3O2)C1` [Alotaketal C]: the “activation of protein kinase C” value in data set [3] is recorded as “activates”. Besides, the EC50 in [4] (Severe acute respiratory syndrome coronavirus 2, Calu-3, read-out: EC50, inhibition of mNG-SARS-CoV-2 infection) was found to be 0.11 µM; in [4] (Severe acute respiratory syndrome coronavirus 2, Calu-3, read-out: EC50, secondary screening of hits), 0.08 µM; in data set [1] (setting [11]) it was 0.55 µM; in data set [1] (Severe acute respiratory syndrome coronavirus 2, Calu-3 cells, dsRNA marker, read-out: dsRNA (EC50), Omicron BA.1), 0.4 µM; in [1] (Severe acute respiratory syndrome coronavirus 2, Calu-3 cells, nucleocapsid marker, read-out: Nucleocapsid (EC50), Omicron BA.1) it was 0.7 µM; in data set [5] (Calu-3 cells, dsRNA marker, read-out: dsRNA (EC50), Delta B.1.617.2) it was 3.9 µM. In addition, the EC50 in [5] (Calu-3 cells, nucleocapsid marker, read-out: Nucleocapsid (EC50), Delta B.1.617.2) was 4.9 µM; in data set [5] (Severe acute respiratory syndrome coronavirus 2, Calu-3, Calu-3 cells, dsRNA marker, read-out: dsRNA (EC50), Delta B.1.617.2), 3.96 µM; in data set [5] (Severe acute respiratory syndrome coronavirus 2, Calu-3, Calu-3 cells, nucleocapsid marker, read-out: Nucleocapsid (EC50), Delta B.1.617.2), 4.89 µM; in data set [6] (dsRNA marker, read-out: dsRNA EC50, VIDO) it was 1.33 µM; in [6] (nucleocapsid marker, read-out: Nucleocapsid EC50, VIDO) it was 1.44 µM; in data set [7] (dsRNA marker, read-out: dsRNA (EC50), Omicron BA.5), 0.7 µM. For the same compound, the EC50 in data set [7] (nucleocapsid marker, read-out: Nucleocapsid (EC50), Omicron BA.5) stood at 0.3 µM; in [9] (dsRNA marker, read-out: dsRNA (EC50), Omicron BA.2) it was 0.7 µM; in [9] (nucleocapsid marker, read-out: Nucleocapsid (EC50), Omicron BA.2), 0.7 µM. In addition, the inhibition at 50 µM in data set [4] (Severe acute respiratory syndrome coronavirus 2, Calu-3, read-out: inhibition of SARS-CoV-2 infection) stood at 90.6%. Further, the “SARS-COV-2 Activity” value in data set [1] is recorded as “yes”. In addition, the “SI (selectivity index)” value in [1] is given as 181.8. This compound yielded a CC50 at 48 h in [2] of at least 100 µM. Also, in data set [8], the selectivity ratio is 850.

As to `CCCCCCCCCC[C@@H]1CCC[C@]2(C=C(CO)[C@H]3CC(=O)C(C)=C[C@H]3O2)O1` [Compound I10-Dec02, (2S,4aR,6′R,8aR)-4-(hydroxymethyl)-7-methyl-6′-decyl-3′,4a,4′,5′,6′,8a-hexahydrospiro [chromene-2, 2′-pyran]-6 (5H)-one], in data set [1], the “SARS-COV-2 Activity” value is reported as “yes” and the “SI (selectivity index)” value was 297.2. In addition, the “inhibition of SARS-CoV-2 Omicron” value in [1] (Calu-3 cells) is “good inhibition”. For the same compound, the EC50 in data set [1] (setting [11]) stood at 0.25 µM. In data set [2], this compound registered a CC50 at 48 h of 74.3 µM.

`CCCCCCCC[C@@H]1CCC[C@]2(C=C(CO)[C@H]3CC(=O)C(C)=C[C@H]3O2)O1` [Compound I10-Oct, (2S,4aR,6′R,8aR)-4-(hydroxymethyl)-7-methyl-6′-octyl-3′,4a,4′,5′,6′,8a-hexahydrospiro[chromene-2,2′-pyran]-6(5H)-one]: in [1], the “SARS-COV-2 Activity” value is recorded as “yes” and the “SI (selectivity index)” value is recorded as 100.6. Further, in data set [1] (Calu-3 cells), the “inhibition of SARS-CoV-2 Omicron” value is on record as “good inhibition”. In addition, in data set [1] (setting [11]), the EC50 was determined as 1 µM. The same compound returned a CC50 at 48 h in data set [2] of at least 101 µM.

In the case of `CC1=C[C@H]2O[C@]3(C=C(CO)[C@H]2CC1=O)CCCCO3` [Compound I10-H, (2S,4aR,8aR)-4-(hydroxymethyl)-7-methyl-3′,4a,4′,5′,6′,8a-hexahydrospiro[chromene-2,2′-pyran]-6(5H)-one], in [1], the “SARS-COV-2 Activity” value is reported as “no” and the “potency compared with Alotaketal C” value is given as “decreased”. Besides, the “inhibition of SARS-CoV-2 Omicron” value in data set [1] (Calu-3 cells) is “no inhibition activity”. Besides, the CC50 at 48 h in [2] was at least 100 µM.

Take `CC(C)=CCC(C)CCCC1CCC[C@]2(C=C(CO)[C@H]3CC(=O)C(C)=C[C@H]3O2)O1` (stereo in doubt) [Compound I10-Cit3, (2S,4aR,6′R,8aR)-6′-(4,7-dimethyloct-6-en-1-yl)-4-(hydroxymethyl)-7-methyl-3′,4a,4′,5′,6′,8a-hexahydrospiro[chromene-2,2′-pyran]-6(5H)-one]: in data set [1], the “SARS-COV-2 Activity” value is listed as “no” and the “potency compared with Alotaketal C” value was “decreased”. Besides, the “inhibition of SARS-CoV-2 Omicron” value in data set [1] (Calu-3 cells) is “no inhibition activity”. In data set [2], this compound came in with a CC50 at 48 h of at least 100 µM.

On to `CC(C)C[C@H](NC(=O)OCc1ccccc1)C(=O)N[C@@H](C[C@@H]1CCNC1=O)C(O)S(=O)(=O)[O-].[Na+]` (stereo partly drawn) [GC376], for which, in [10], the “reduction of mNG-SARS-CoV-2 infection” value is “dose-dependent reduction”.

Consider `CCCCCCCCCC[C@H]1CCC[C@]2(C=C(CO)[C@H]3CC(=O)C(C)=C[C@H]3O2)O1` [Compound I10-Dec01, (2S,4aR,6'S,8aR)-4-(hydroxymethyl)-7-methyl-6′-decyl-3′,4a,4′,5′,6′,8a-hexahydrospiro[chromene-2,2′-pyran]-6(5H)-one], for which, in [1], the “SARS-COV-2 Activity” value was “no” and the “potency compared with Alotaketal C” value is “decreased”. Also, in data set [1] (Calu-3 cells), the “inhibition of SARS-CoV-2 Omicron” value is on record as “no inhibition activity”. For the same compound, the CC50 at 48 h in data set [2] is at least 339 µM.

`CC(C)=CCC(C)CCCC1CCC[C@]2(C=C(CO)[C@H]3CC(=O)C(C)=C[C@H]3O2)O1` (stereo in doubt) [Compound I10-Cit4, (2S,4aR,6'S,8aR)-6′-(4,7-dimethyloct-6-en-1-yl)-4-(hydroxymethyl)-7-methyl-3′,4a,4′,5′,6′,8a-hexahydrospiro[chromene-2,2′-pyran]-6(5H)-one]: in data set [1], the “SARS-COV-2 Activity” value is “yes” and the “SI (selectivity index)” value was found to be 50872. The “inhibition of SARS-CoV-2 Omicron” value in data set [1] (Calu-3 cells) was “good inhibition”. For the same compound, the EC50 in [1] (setting [11]) was determined as 0.25 µM. The compound further displayed a 50% cytotoxic concentration (CC50) at 48 h in data set [2] of at least 12700 µM.

For orientation: CC50 means the concentration at which the toxic effect on the cells reaches its halfway point. One may read the inhibition as the drop in the measured response relative to a control, in per cent.
